Measured values reported in ChEMBL document CHEMBL5465560, “Selectivity Literature for EUbOPEN Chemogenomic Library” (2024).

Tests used:
[1] = target: T1, Protein kinase C epsilon type (Homo sapiens) (UniProt Q02156); details: at 10 µM
T1 sequence (whole entry): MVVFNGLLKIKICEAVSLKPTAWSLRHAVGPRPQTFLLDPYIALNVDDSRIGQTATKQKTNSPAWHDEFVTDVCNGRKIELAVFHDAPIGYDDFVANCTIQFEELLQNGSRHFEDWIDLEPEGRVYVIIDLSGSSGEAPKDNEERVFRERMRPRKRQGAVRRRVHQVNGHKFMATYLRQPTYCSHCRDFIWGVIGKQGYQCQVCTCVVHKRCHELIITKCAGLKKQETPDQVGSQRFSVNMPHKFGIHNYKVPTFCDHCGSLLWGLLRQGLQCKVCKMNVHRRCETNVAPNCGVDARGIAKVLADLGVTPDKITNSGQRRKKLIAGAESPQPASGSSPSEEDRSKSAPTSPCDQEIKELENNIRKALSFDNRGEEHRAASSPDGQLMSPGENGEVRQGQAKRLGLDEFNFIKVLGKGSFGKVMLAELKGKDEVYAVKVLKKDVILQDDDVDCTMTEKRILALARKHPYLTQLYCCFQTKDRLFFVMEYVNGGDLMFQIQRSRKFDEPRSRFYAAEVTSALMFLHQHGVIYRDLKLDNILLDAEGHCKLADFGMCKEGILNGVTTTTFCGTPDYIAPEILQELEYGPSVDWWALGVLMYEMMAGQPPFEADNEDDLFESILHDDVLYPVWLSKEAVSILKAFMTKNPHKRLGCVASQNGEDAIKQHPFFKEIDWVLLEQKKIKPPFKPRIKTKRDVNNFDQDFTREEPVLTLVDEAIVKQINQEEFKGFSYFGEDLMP

[2] = target: T2, Serine/threonine-protein kinase PLK4 (Homo sapiens) (UniProt O00444); assay: Selectivity interaction (Ambit KINOMEscan and KiNATiv profiling in Jurkat cells) EUB0000090b PLK4; type: cell-based; details: at 1 µM
T2 sequence (whole entry): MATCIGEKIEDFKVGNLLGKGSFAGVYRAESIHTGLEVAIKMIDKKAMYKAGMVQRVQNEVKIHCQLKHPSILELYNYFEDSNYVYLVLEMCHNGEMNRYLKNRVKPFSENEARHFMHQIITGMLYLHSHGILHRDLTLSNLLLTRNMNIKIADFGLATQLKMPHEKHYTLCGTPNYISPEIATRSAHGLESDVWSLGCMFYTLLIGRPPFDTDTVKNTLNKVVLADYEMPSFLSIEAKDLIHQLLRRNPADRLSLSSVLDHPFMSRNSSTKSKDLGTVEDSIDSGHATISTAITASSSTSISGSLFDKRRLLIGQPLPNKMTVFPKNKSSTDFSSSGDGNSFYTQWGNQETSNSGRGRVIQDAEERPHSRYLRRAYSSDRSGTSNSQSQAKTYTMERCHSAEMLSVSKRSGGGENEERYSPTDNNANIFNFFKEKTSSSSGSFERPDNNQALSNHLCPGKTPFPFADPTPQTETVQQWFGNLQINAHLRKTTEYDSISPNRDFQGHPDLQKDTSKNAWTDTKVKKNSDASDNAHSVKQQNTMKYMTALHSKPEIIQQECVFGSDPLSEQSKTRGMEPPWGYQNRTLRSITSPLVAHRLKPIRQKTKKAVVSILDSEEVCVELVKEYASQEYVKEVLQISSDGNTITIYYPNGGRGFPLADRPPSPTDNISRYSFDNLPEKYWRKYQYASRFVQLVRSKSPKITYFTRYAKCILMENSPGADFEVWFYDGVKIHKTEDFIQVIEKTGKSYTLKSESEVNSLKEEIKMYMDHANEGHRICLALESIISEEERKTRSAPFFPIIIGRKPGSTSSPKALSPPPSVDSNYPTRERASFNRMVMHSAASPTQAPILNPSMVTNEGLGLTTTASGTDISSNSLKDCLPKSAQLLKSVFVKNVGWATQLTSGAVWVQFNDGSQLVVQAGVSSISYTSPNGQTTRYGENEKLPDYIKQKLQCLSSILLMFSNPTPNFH

[3] = target: Serine/threonine-protein kinase pim-2 (Homo sapiens, UniProt Q9P1W9); assay: Selectivity interaction (Ambit KINOMEscan and KiNATiv profiling in Jurkat cells) EUB0000090b PIM2; type: cell-based; details: at 1 µM
[4] = target: Tyrosine-protein kinase JAK1 (Homo sapiens, UniProt P23458); assay: Selectivity interaction (KinomeScan (DiscoverX)) EUB0000045b JAK1
[5] = target: Mitogen-activated protein kinase 10 (Homo sapiens, UniProt P53779); assay: Selectivity interaction (KinomeScan (DiscoverX)) EUB0000595a MAPK10; details: at 10 µM
[6] = Selectivity interaction (KinomeScan (DiscoverX)) EUB0000229b PKNB; details: at 1 µM
[7] = target: Rho-associated protein kinase 2 (Homo sapiens, UniProt O75116); assay: Selectivity interaction (ProQinase) EUB0000171b ROCK2
[8] = target: Dual specificity tyrosine-phosphorylation-regulated kinase 1A (Homo sapiens, UniProt Q13627); assay: Selectivity interaction (KinomeScan (DiscoverX)) EUB0000092b DYRK1A; details: at 10 µM
[9] = target: T3, Membrane-associated tyrosine- and threonine-specific cdc2-inhibitory kinase (Homo sapiens) (UniProt Q99640); assay: Selectivity interaction (KinomeScan (DiscoverX)) EUB0000092b PKMYT1; details: at 10 µM
T3 sequence (whole entry): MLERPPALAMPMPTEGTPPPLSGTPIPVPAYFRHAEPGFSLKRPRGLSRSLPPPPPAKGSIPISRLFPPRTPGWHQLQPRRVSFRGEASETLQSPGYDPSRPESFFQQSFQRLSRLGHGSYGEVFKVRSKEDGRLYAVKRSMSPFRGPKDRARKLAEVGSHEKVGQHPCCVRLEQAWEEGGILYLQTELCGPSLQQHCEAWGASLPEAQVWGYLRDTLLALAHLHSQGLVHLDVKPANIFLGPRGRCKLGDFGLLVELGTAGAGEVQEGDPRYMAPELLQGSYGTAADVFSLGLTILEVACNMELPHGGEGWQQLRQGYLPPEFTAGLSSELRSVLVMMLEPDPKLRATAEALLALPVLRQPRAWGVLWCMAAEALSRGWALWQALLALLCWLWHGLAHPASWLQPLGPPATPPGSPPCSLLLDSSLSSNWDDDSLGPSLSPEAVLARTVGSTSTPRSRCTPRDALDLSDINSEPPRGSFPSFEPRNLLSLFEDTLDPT

[10] = target: Mitogen-activated protein kinase kinase kinase kinase 5 (Homo sapiens) (UniProt Q9Y4K4); assay: Selectivity interaction (KinomeScan (DiscoverX)) EUB0000695a MAP4K5; details: at 100 nM
Mitogen-activated protein kinase kinase kinase kinase 5 (Homo sapiens), sequence (Q9Y4K4 whole entry, looked up): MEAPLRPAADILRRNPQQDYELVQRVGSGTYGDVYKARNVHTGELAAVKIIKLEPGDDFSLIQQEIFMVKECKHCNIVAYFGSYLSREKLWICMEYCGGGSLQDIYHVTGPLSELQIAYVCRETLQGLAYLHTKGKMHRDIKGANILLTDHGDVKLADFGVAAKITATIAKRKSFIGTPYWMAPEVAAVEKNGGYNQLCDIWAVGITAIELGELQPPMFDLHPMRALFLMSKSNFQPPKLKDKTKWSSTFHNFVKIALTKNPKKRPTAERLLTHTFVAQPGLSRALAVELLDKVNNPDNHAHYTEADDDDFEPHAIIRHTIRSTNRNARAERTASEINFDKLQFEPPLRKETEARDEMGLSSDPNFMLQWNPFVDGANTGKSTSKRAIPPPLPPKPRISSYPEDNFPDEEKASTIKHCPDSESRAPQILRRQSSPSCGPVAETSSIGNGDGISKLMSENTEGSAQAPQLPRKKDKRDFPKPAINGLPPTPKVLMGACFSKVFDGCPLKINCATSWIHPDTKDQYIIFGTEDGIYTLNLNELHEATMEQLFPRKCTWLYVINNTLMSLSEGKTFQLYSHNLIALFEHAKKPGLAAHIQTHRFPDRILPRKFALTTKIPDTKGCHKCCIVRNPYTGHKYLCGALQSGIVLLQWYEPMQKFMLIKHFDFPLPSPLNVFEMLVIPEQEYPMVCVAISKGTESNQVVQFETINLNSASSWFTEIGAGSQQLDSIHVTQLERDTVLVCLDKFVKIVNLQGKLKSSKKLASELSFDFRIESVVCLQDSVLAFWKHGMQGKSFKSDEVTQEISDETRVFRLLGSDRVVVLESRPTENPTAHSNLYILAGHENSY

Tyrosine-protein kinase JAK1, sequence (P23458 whole entry): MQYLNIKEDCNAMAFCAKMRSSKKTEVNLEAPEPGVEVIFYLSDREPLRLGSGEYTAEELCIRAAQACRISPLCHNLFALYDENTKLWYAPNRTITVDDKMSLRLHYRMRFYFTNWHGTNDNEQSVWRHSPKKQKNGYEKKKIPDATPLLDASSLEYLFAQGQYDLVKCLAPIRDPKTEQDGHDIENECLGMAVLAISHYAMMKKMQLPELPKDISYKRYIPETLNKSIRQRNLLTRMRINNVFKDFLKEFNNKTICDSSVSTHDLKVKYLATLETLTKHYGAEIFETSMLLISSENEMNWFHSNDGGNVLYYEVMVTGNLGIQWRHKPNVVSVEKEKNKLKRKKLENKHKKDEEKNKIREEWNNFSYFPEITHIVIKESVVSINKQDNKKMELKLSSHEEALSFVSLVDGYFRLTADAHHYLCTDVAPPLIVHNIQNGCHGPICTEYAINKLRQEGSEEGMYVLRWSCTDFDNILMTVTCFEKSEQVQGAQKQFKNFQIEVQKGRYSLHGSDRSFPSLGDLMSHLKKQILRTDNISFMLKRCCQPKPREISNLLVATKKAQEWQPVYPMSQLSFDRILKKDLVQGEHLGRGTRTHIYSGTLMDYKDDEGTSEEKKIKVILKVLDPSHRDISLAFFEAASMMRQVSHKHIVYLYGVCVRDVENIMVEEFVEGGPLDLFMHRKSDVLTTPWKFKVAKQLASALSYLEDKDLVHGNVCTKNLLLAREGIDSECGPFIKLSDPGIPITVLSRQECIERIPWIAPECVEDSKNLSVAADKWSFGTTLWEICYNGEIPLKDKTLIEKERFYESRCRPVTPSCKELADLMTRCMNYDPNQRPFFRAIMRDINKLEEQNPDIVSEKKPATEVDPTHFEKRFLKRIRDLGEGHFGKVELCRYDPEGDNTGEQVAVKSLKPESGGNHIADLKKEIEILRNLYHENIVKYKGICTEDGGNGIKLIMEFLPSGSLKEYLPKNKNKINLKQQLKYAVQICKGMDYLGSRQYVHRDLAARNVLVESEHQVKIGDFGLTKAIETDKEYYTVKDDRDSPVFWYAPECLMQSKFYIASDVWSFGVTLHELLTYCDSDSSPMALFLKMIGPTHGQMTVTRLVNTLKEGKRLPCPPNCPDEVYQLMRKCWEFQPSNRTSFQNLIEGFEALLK
Rho-associated protein kinase 2, sequence (O75116 whole entry, looked up): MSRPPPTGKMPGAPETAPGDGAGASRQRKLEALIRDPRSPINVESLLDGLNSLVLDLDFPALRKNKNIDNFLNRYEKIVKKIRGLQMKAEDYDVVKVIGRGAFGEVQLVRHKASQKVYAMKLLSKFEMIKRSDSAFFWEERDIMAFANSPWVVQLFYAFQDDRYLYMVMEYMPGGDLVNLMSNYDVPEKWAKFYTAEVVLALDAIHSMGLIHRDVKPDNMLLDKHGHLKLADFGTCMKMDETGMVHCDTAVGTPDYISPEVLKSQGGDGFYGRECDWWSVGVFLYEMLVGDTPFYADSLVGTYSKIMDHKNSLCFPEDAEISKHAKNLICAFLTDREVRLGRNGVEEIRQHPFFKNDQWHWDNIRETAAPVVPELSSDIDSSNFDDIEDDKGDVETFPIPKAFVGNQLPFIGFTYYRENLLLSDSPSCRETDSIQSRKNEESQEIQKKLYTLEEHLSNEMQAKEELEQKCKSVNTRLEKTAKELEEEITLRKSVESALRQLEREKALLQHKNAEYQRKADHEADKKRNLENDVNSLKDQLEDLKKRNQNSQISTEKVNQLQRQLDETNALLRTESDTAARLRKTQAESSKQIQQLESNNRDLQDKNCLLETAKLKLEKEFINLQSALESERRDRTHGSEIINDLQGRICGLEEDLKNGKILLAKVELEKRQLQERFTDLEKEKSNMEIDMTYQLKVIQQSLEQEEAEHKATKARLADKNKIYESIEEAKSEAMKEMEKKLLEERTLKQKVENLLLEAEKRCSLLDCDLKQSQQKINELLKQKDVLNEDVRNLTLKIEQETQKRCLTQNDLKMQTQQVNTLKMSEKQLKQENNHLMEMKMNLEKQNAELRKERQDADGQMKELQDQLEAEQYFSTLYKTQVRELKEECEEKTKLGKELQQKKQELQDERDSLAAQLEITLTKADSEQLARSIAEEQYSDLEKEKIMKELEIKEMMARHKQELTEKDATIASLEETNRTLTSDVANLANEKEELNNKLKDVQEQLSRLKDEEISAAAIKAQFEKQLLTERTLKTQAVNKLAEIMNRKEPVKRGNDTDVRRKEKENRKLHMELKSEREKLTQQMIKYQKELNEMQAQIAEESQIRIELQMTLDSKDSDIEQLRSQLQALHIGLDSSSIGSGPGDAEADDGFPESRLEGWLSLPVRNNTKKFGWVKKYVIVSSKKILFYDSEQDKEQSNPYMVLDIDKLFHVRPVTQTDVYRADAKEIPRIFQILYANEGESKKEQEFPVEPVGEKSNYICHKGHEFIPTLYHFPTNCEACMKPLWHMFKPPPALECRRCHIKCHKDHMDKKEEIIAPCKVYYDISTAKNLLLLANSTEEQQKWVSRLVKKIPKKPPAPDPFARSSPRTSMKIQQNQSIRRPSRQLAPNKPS
Mitogen-activated protein kinase 10, sequence (P53779 whole entry): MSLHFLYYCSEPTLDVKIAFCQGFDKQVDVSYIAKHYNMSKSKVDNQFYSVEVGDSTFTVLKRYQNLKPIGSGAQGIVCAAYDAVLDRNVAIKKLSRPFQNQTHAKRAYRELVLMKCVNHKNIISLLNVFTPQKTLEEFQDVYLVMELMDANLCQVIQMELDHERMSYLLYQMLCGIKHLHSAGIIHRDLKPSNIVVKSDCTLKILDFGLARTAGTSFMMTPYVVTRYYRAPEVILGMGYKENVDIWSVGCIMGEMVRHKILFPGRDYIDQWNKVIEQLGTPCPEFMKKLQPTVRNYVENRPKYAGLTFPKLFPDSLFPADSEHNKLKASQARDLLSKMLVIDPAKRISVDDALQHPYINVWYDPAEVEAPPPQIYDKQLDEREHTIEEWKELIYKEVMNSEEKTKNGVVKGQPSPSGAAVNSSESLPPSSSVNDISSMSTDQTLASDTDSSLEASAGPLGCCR
Serine/threonine-protein kinase pim-2, sequence (Q9P1W9 whole entry, looked up): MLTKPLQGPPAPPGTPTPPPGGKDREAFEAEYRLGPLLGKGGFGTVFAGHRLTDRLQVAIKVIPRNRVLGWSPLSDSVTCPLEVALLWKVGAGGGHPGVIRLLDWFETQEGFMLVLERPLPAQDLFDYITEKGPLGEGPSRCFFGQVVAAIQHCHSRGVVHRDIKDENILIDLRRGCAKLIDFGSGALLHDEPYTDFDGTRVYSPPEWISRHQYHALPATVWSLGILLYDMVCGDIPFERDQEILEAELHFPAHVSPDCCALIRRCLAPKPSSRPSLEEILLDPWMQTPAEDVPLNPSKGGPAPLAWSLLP

## CCN(CC)CCCCNc1ncc2cc(-c3cc(OC)cc(OC)c3)c(NC(=O)NC(C)(C)C)nc2n1
[1]
  % of control: 100%

## CN(C)C/C=C/C(=O)Nc1ccc(C(=O)N2CCCC(Nc3ncc(Cl)c(-c4c[nH]c5ccccc45)n3)C2)cc1 (configuration not stated)
[2]
  % of control: 82%
[3]
  % of control: 89%

## C=CC(=O)Nc1cc(-n2c(=O)ccc3cnc4ccc(-c5ccc(NS(C)(=O)=O)cc5)cc4c32)ccc1C
[4]; at 1 µM
  % of control: 87%
[4]; at 10 µM
  % of control: 76%

## COCC(=O)NC/C=C/c1ccc2ncnc(Nc3ccc(Oc4ccc(C)nc4)c(C)c3)c2c1 [CP-724714]
[5]
  % of control: 68%

## COc1cc(N(C)c2ccnc3ccc(C(F)(F)F)cc23)cc(OC)c1OC
[6]
  % binding: 100%

## C=CC(=O)Nc1cccc(C(=O)Nc2ccc(Nc3cc(-c4[nH]c(SC)nc4C)ccn3)cc2)c1
[7]; at 1 µM
  % of control: 95%
[7]; at 5 µM
  % of control: 75%

## CCC(=O)N1CCN(c2ccc(-n3c(=O)ccc4cnc5ccc(-c6cnc7ccccc7c6)cc5c43)cc2C(F)(F)F)CC1
[8]
  % of control: 71%
[9]
  % of control: 52%

## Cc1cc(F)c(C(=O)Nc2cccc(-c3nncn3C(C)C)n2)cc1-n1cnc(C2CC2)c1
[10]
  % of control: 100%
